Patent publication US20260070911A1, “INHIBITORS OF TAM RECEPTORS” (National Health Research Institutes, priority 2022, published 2026)

How the values were obtained:
Type in all cases: biochemical
[1] = target: T1, MERTK (Homo sapiens, UniProt Q12866); experiment: MERTK enzymatic assay (Kinase Glo); details: purified kinase, ATP 12 μM, read-out: MER Enzymatic Inhibition (%)
T1 sequence (Q12866 21-999): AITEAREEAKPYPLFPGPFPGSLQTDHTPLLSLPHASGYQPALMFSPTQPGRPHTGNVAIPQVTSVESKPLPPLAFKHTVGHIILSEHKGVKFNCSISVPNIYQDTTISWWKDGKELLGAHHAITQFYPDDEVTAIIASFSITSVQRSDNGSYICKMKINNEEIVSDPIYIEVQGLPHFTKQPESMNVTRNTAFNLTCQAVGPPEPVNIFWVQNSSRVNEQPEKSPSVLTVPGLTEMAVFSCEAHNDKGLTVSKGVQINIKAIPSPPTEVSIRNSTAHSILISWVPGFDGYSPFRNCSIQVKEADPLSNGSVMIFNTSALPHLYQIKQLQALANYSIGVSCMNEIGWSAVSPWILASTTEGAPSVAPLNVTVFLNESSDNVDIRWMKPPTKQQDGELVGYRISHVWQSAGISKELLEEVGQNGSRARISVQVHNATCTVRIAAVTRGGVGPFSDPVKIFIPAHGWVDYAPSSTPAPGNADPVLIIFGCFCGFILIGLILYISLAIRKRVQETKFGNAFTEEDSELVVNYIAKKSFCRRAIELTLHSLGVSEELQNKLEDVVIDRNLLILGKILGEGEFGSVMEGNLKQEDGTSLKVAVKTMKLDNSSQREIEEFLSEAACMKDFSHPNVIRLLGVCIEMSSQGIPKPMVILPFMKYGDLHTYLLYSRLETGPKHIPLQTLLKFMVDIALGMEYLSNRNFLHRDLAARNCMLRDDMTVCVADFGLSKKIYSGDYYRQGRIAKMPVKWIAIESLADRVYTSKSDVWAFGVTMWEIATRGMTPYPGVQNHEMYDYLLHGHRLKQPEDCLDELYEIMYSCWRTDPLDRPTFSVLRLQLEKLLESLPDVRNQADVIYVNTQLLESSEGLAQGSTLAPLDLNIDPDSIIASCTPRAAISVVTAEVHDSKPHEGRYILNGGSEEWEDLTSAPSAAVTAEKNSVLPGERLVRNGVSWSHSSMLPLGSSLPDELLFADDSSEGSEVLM
Experimental: (§1) A purified kinase (AXL or MERTK) was incubated with a compound or DMSO (control) for 15 minutes in an assay buffer (25 mM Tri s pH 7.4, 10 mM MgCl2, 4 mM MnCl2, 2 mM DTT, 0.0100 BSA, 0.02% TritonX-100, 0.0100 Brij35 and 0.5 mM Na3VO4 for MERTK; and 40 mM Tri s pH 7.4, 20 mM MgCl2, 2 mM DTT, 0.01% BSA and 0.5 mM Na3VO4 for AXL). […] The mixture was incubated for 3 hours at 30° C. The luminescence was calculated to determine the kinase activity using a Kinase Glo assay kit for MERTK and an ADP-Glo Kinase Assay kit for AXL following the manufacture's instructions (Promega Corp., Madison, Wisconsin).
(§2) A study was conducted to compare exemplary compounds of formula (I) in inhibiting TAM activities, including MERTK, AXL, and TYRO3. An enzymatic assay was used in the study. A purified Kinase (i.e., MERTK, AXL, or TYRO3) was incubated with a compound or DMSO (control) for around 15 minutes in an assay buffer (25 mM Tris pH 7.4, 10 mM MgCl2, 4 mM MnCl2, 2 mM DTT, 0.01% BSA, 0.02% TritonX-100, 0.01% Brij35 and 0.5 mM Na3VO4 for MERTK; 40 mM Tris pH 7.4, 20 mM MgCl2, 2 mM DTT, 0.01% BSA and 0.5 mM Na3VO4 for AXL; and 25 mM Tris pH 7.4, 10 mM MgCl2, 4 mM MnCl2, 2 mM DTT, 0.01% BSA and 0.5 mM Na3VO4 for TYRO3). […] The mixture was incubated for 3 hours at 30° C. The luminescence was calculated to determine the kinase activity using a Kinase Glo assay kit for MERTK and an ADP-Glo Kinase assay kit for AXL and TYRO3 following the manufacture's instructions (Promega). Inhibition rates and half maximal inhibitory concentration (IC50) values were calculated. High percentage inhibition rates and low IC50 values are indicatives of high potency of the test compound.

[2] = target: T2, AXL (Homo sapiens, UniProt P30530); experiment: AXL enzymatic assay (ADP-Glo); details: purified kinase, ATP 50 μM, read-out: AXL Enzymatic Inhibition (%)
T2 sequence (P30530 26-894): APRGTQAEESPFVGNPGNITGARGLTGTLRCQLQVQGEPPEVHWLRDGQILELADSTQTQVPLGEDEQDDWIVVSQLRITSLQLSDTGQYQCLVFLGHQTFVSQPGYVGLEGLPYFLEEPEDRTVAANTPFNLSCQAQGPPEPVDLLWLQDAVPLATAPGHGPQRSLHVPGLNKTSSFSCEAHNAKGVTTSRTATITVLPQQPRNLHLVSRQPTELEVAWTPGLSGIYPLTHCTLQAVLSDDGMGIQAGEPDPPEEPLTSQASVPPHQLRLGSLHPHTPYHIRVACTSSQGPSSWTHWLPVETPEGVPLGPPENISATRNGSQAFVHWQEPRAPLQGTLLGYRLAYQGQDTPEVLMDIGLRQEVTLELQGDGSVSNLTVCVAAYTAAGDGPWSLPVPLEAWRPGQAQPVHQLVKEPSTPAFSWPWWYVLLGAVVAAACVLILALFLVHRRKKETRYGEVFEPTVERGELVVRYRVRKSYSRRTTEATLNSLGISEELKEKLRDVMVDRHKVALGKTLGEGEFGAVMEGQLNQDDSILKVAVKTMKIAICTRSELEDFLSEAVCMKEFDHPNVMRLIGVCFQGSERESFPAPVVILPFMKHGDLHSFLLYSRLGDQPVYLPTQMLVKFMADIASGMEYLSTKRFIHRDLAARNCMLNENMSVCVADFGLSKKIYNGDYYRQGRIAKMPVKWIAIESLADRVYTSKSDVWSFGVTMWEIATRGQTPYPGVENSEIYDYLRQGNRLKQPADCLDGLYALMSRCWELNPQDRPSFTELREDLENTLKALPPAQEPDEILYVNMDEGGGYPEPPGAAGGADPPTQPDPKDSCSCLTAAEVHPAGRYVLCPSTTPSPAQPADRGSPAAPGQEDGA
Experimental: as §1, §2

[3] = test system: MER/AXL; experiment: Dual MER/AXL inhibition (enzymatic); details: class for both MER and AXL
Experimental: as §1

IC50 [1] [nM]	IC50 [2] [nM]	IC50 [3] [nM]	Structure (SMILES)
20 to 100	< 20	20 to 100	Cc1cc(F)ccc1-n1cccc(C(=O)Nc2ccc(Oc3ncnc4oc(-c5cnn(C)c5)c(-c5cccc(CN(C)C)c5)c34)cc2)c1=O [Compound 98]
20 to 100	< 20	20 to 100	Cn1cc(-c2oc3ncnc(Oc4ccc(NC(=O)c5cccn(-c6ccc(F)c(F)c6)c5=O)cc4)c3c2-c2cccc(N)c2)cn1 [Compound 94]
100 to 50000	20 to 100	100 to 50000	CC(=O)Nc1cccc(-c2c(C)oc3ncnc(Oc4ccc(NC(=O)c5cccn(-c6ccc(F)cc6)c5=O)cc4)c23)c1 [Compound 50]
100 to 50000	100 to 50000	100 to 50000	Cn1cc(-c2oc3ncnc(Oc4ccc(NC(=O)c5cn(C)n(-c6ccc(F)cc6)c5=O)cc4)c3c2-c2cccc(N3CCCCC3=O)c2)cn1 [Compound 176]
100 to 50000	< 20	100 to 50000	CC(=O)Nc1cccc(-c2c(-c3cnn(C)c3)oc3ncnc(Oc4ccc(NC(=O)c5cc6c(n(-c7ccccc7)c5=O)CCCC6=O)cc4)c23)c1 [Compound 62]
100 to 50000	100 to 50000	100 to 50000	CCOc1ccn(-c2ccc(F)cc2)c(=O)c1C(=O)Nc1ccc(Oc2ncnc3[nH]ccc23)cc1 [Compound 6]
100 to 50000	< 20	100 to 50000	Nc1cccc(-c2c[nH]c3ncnc(Nc4ccc(NC(=O)c5cccn(-c6ccc(F)cc6)c5=O)cc4)c23)c1 [Compound 14]
100 to 50000	< 20	100 to 50000	CC(=O)Nc1cccc(-c2c(-c3cnn(C)c3)oc3ncnc(Oc4ccc(NC(=O)c5cccn(-c6cccc(F)c6)c5=O)cc4)c23)c1 [Compound 57]

The remaining lines, values behind:

Structure (SMILES)	IC50 [1] [nM]	IC50 [2] [nM]	IC50 [3] [nM]
Cn1cc(-c2cc3c(Oc4ccc(NC(=O)c5cccn(C6CCCCC6)c5=O)cc4)ncnc3o2)cn1 [Compound 86]	100 to 50000	100 to 50000	100 to 50000
Cn1cc(-c2oc3ncnc(Oc4ccc(NC(=O)c5cccn(-c6cccc(F)c6)c5=O)cc4)c3c2-c2cccc(N)c2)cn1 [Compound 55]	20 to 100	< 20	20 to 100
Cn1cc(-c2oc3ncnc(Oc4ccc(NC(=O)c5cccn(-c6ccc(F)cc6)c5=O)nc4)c3c2-c2cccc(N)c2)cn1 [Compound 52]	20 to 100	< 20	20 to 100
Cn1cc(-c2oc3ncnc(Oc4ccc(NC(=O)c5ccc[nH]c5=O)cc4)c3c2-c2cccc(N)c2)cn1 [Compound 77]	100 to 50000	100 to 50000	100 to 50000
CCOc1ccn(-c2ccc(F)cc2)c(=O)c1C(=O)Nc1ccc(Oc2ncnc3[nH]cc(-c4cccc(N)c4)c23)cc1 [Compound 1]	20 to 100	< 20	20 to 100
CN(C)Cc1cccc(-c2c(-c3cnn(C)c3)oc3ncnc(Oc4ccc(NC(=O)c5cccn(-c6ccc(F)cc6F)c5=O)cc4)c23)c1 [Compound 93]	20 to 100	< 20	20 to 100
O=C(Nc1ccc(Oc2nc(Cl)nc3[nH]ccc23)cc1)c1cccn(-c2ccc(F)cc2)c1=O [Compound 5]	100 to 50000	100 to 50000	100 to 50000
Cn1cc(-c2oc3ncnc(Oc4ccc(NC(=O)c5cc6c(n(-c7ccccc7)c5=O)CCCC6=O)cc4)c3c2-c2cccc(N)c2)cn1 [Compound 61]	20 to 100	< 20	20 to 100
O=C(Nc1ccc(Oc2ncnc3[nH]cc(C#Cc4ccccc4)c23)cc1)c1cccn(-c2ccc(F)cc2)c1=O [Compound 18]	100 to 50000	< 20	100 to 50000
CN(C)c1cccc(-c2c[nH]c3ncnc(Oc4ccc(NC(=O)c5cccn(-c6ccc(F)cc6)c5=O)cc4)c23)c1 [Compound 21]	100 to 50000	100 to 50000	100 to 50000
Cn1cc(-c2cc3c(Oc4ccc(NC(=O)c5cccn(-c6ccc(F)cc6)c5=O)cc4)ncnc3[nH]2)cn1 [Compound 78]	20 to 100	< 20	20 to 100
CC(=O)Nc1cccc(-c2c(-c3cnn(C)c3)oc3ncnc(Oc4ccc(NC(=O)c5c(C)n(C)n(-c6ccc(F)cc6)c5=O)cc4)c23)c1 [Compound 122]	100 to 50000	< 20	100 to 50000
CC(=O)Nc1cccc(-c2c(-c3cnn(C)c3)oc3ncnc(Oc4ccc(NC(=O)c5cccn(-c6ccccc6)c5=O)cc4)c23)c1 [Compound 56]	20 to 100	< 20	20 to 100
Cc1cc(F)ccc1-n1cccc(C(=O)Nc2ccc(Oc3ncnc4oc(-c5cnn(C)c5)c(-c5cccc(N)c5)c34)cc2)c1=O [Compound 73]	20 to 100	< 20	20 to 100
CCOc1ccn(-c2ccc(F)cc2)c(=O)c1C(=O)Nc1ccc(Oc2ncnc3[nH]cc(-c4cccc(NC(C)=O)c4)c23)cc1 [Compound 2]	20 to 100	< 20	20 to 100
O=C(Nc1ccc(Oc2ncnc3[nH]cc(-c4ccccc4)c23)cc1)c1cccn(-c2ccc(F)cc2)c1=O [Compound 8]	20 to 100	100 to 50000	100 to 50000
CC(=O)Nc1cccc(-c2c(-c3cnn(C)c3)oc3ncnc(Oc4ccc(NC(=O)c5ccc(-c6ccc(F)cc6)o5)cc4)c23)c1 [Compound 118]	100 to 50000	100 to 50000	100 to 50000
CCOc1ccn(-c2ccc(F)cc2)c(=O)c1C(=O)Nc1ccc(Oc2ncnc3oc(-c4cnn(C)c4)c(-c4cccc(N)c4)c23)cc1 [Compound 19]	20 to 100	< 20	20 to 100
CN(C)Cc1cccc(-c2n[nH]c3ncnc(Oc4ccc(NC(=O)c5cn(C)n(-c6ccc(F)cc6)c5=O)cc4)c23)c1 [Compound 139]	100 to 50000	100 to 50000	100 to 50000
